“And” between values parts separate entries of the source, which are not always exact repeats. Equal entries are not always repeated. Where two headings read alike, the source gives them in different places.
Target: T1, human GPR119 (Homo sapiens, UniProt Q8TDV5)
T1 construct: host or cells: HEK293-CRE beta-lactamase cells
T1 sequence (Q8TDV5 1-335): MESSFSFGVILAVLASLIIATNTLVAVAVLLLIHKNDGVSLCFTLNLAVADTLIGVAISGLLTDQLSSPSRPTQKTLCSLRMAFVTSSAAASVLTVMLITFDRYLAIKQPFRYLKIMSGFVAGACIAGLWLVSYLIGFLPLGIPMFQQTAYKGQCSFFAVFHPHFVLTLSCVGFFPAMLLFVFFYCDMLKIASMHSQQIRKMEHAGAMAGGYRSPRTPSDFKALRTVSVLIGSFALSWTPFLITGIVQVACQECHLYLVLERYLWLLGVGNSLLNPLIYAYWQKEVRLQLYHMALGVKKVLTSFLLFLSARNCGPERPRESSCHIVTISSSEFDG
Assay: cAMP functional assay (HTRF, hGPR119 HEK-CRE beta-lactamase cells)
Assay type: cell-based
Protocol: GPR119 agonist activity was also determined with a cell-based assay utilizing an HTRF (Homogeneous Time-Resolved Fluorescence) cAMP detection kit (cAMP dynamic 2 Assay Kit; Cis Bio cat #62AM4PEC) that measures cAMP levels in the cell. The method is a competitive immunoassay between native cAMP produced by the cells and the cAMP labeled with the dye d2. The tracer binding is visualized by a Mab anti-cAMP labeled with Cryptate. The specific signal (i.e. energy transfer) is inversely proportional to the concentration of cAMP in either standard or sample.
Specifically, hGPR119HEK-CRE beta-lactamase cells (Invitrogen 2.5×10^7/ml; the same cell line used in the beta-lactamase assay described above) are removed from cryopreservation and diluted in growth medium (Dulbecco's modified Eagle medium high glucose (DMEM; Gibco Cat #11995-065), 1% charcoal dextran treated fetal bovine serum (CD serum; HyClone Cat #SH30068.03), 1×MEM Nonessential amino acids (Gibco Cat #15630-080) and 25 mM HEPES pH 7.0 (Gibco Cat #15630-080)). The cell concentration was adjusted to 1.5×10^5 cells/ml and 30 mls of this suspension was added to a T-175 flask and incubated at 37 degrees Celsius in a humidified environment in 5% carbon dioxide. After 16 hours (overnight), the cells were removed from the T-175 flask (by rapping the side of the flask), centrifuged at 800×g and then re-suspended in assay medium (1×HBSS+CaCl2+MgCl2 (Gibco Cat #14025-092) and 25 mM HEPES pH 7.0 (Gibco Cat #15630-080)). The cell concentration was adjusted to 6.25×10^5 cells/ml with assay medium and 8 μl of this cell suspension (5000 cells) was added to each well of a white Greiner 384-well, low-volume assay plate (VWR cat #82051-458).
Varying concentrations of each compound to be tested were diluted in assay buffer containing 3-isobutyl-1-methylxanthin (IBMX; Sigma cat #15879) and added to the assay plate wells in a volume of 2 microL (final IBMX concentration was 400 microM and final DMSO concentration was 0.58%). Following 30 minutes incubation at room temperature, 5 microL of labeled d2 cAMP and 5 microL of anti-cAMP antibody (both diluted 1:20 in cell lysis buffer; as described in the manufacturers assay protocol) were added to each well of the assay plate. The plates were then incubated at room temperature and after 60 minutes, changes in the HTRF signal were read with an Envision 2104 multilabel plate reader using excitation of 330 nm and emissions of 615 and 665 nm. Raw data were converted to nM cAMP by interpolation from a cAMP standard curve (as described in the manufacturer's assay protocol) and EC50 determinations were made from an agonist-response curves analyzed with a curve fitting program using a 4-paramter logistic dose response equation.

[1] = hGPR119 HEK-CRE beta-lactamase cells, HTRF cAMP, 30 minutes, one line per run, read-out: Human cAMP Functional EC50
[2] = percent of maximal activity relative to standard GPR119 agonist (WO2005121121) at 10 μM, one line per run, read-out: Intrinsic Activity* (%) (cAMP)

EC50 [1]	Emax [2]	EC50 (**the curve was extrapolated to 100% to calculate an EC50, read-out: Human cAMP Functional EC50 (nM), curve extrapolated to 100%)	Emax (**the curve was extrapolated to 100% to calculate an EC50, read-out: Intrinsic Activity* (%) (cAMP), curve extrapolated to 100%)	SMILES
39 nM and 35 nM and 133 nM and 289 nM	60%			Cc1c(O[C@H]2CCN(C(=O)OC(C)(C)C)C[C@H]2F)ncnc1N1Cc2cnn(C)c2C1 (racemic) [Example 6, tert-Butyl (3,4-cis)-3-fluoro-4-{[5-methyl-6-(1-methyl-4,6-dihydropyrrolo[3,4-c]pyrazol-5(1H)-yl)pyrimidin-4-yl]oxy}piperidine-1-carboxylate (racemic)]
64 nM and 57 nM and 77 nM	72%			Cc1c(O[C@H]2[C@@H]3COC[C@H]2CN(C(=O)OC(C)(C)C)C3)ncnc1N1Cc2cnn(C)c2C1 [Example 9, tert-Butyl (9-anti)-9-{[5-methyl-6-(1-methyl-4,6-dihydropyrrolo[3,4-c]pyrazol-5(1H)-yl)pyrimidin-4-yl]oxy}-3-oxa-7-azabicyclo[3.3.1]nonane-7-carboxylate]

Second part, the compound before the results:

SMILES	EC50 [1]	Emax [2]	EC50 (**the curve was extrapolated to 100% to calculate an EC50, read-out: Human cAMP Functional EC50 (nM), curve extrapolated to 100%)	Emax (**the curve was extrapolated to 100% to calculate an EC50, read-out: Intrinsic Activity* (%) (cAMP), curve extrapolated to 100%)
Cc1c(O[C@H]2CCN(C(=O)OC3(C)CC3)C[C@H]2F)ncnc1N1Cc2cnn(C)c2C1 (racemic) [Example 7, 1-Methylcyclopropyyl (3,4-cis)-3-fluoro-4-{[5-methyl-6-(1-methyl-4,6-dihydropyrrolo[3,4-c]pyrazol-5(1H)-yl)pyrimidin-4-yl]oxy}piperidine-1-carboxylate (racemic)]	17 nM and 14 nM and 12 nM	80%		
Cc1c(OC2CCN(C(=O)OC(C)C)CC2)ncnc1N1Cc2cnn(C)c2C1 [Example 2, Isopropyyl 4-{[5-methyl-6-(1-methyl-4,6-dihydropyrrolo[3,4-c]pyrazol-5(1H)-yl)pyrimidin-4-yl]oxy}piperidine-1-carboxylate]	296 nM and 170 nM and 135 nM and 434 nM	45%		
CC(C)OC(=O)N1CCC(Oc2ncnc(N3Cc4cnn(C)c4C3)c2C#N)CC1 [Example 3, Isopropyyl 4-{[5-cyano-6-(1-methyl-4,6-dihydropyrrolo[3,4-c]pyrazol-5(1H)-yl)pyrimidin-4-yl]oxy}piperidine-1-carboxylate]		51%	6250 nM	100%
Cc1c(O[C@H]2CCN(C(=O)OC(C)(C)C)C[C@@H]2F)ncnc1N1Cc2cnn(C)c2C1 (racemic) [Example 8, tert-Butyl (3,4-trans)-3-fluoro-4-{[5-methyl-6-(1-methyl-4,6-dihydropyrrolo[3,4-c]pyrazol-5(1H)-yl)pyrimidin-4-yl]oxy}piperidine-1-carboxylate (racemic)]	182 nM and 78 nM and 85 nM			

Reference: patent US20130072427A1, “GPR 119 MODULATORS” (Pfizer Inc., priority 2009, published 2013)
